The subject of data set [1] is HCV genotype 2a-specific NS5A gene within the 1b-replicon. The data set is described as follows: Luciferase replicon assay, NS5A-intergenotypic stable cell line genotype 2a. In kind it is cell-based. Particulars: Hepatitis C virus, read-out: EC50 2a. The text has this:
(§1) The nucleotide sequences of the NS5A region of genotype 2a (GenBank Accession #AB047639), genotype 3a (GenBank Accession #D17763), and genotype 4a (GenBank Accession#DQ418788) were synthesized by an outside vendor. The NS5A region of each of these genotypes included the first 11 amino acids of the protease recognition sequence of genotype 1b, as well as the last 10 amino acids of genotype 1b. The NS5A gene cassettes were excised with site specific restriction endonucleases and ligated into a ZS11-luciferase genotype 1b backbone (backbone contains the genotype 1b NS3 protease, NS4a, NS4b, and NS5b coding regions) with similarly cut restriction enzyme sites. Thus, the newly constructed plasmid contains a genotype 2a-, 3a- or 4a-specific NS5A gene within the 1b-replicon.
(§2) These new intergenotypic plasmids were used to establish stable cell lines. RNA was generated from the NS5A intergenotypic plasmids and used in conjunction with a lipofectin reagent to transfect a cured Huh7 cell line. Transfected cells were selected for with G418. After selection has occurred the stable cell lines were propagated, tested for luciferase activity, and RT-PCR with genotype specific primers (either 1a, 2a, 3a, or 4a). Stable cell lines containing the intergenotypic replicon were then fully sequenced and analysed for proper expression of NS3, NS5A and NS5B proteins.
(§3) Drug titration analysis was performed using the luciferase replicon assay described herein.
(§4) The HCV luciferase replicon assay measures the ability of a test compound to inhibit HCV replication in cell culture after 3 days of treatment in a human hepatoma cell line (Huh-7) bearing a HCV replicon containing a luciferase-neomycin phosphotransferase fusion gene. The inhibition of HCV replication was measured by quantification of luciferase protein expression. Briefly, Huh-7 cells containing either the HCV genotype 1a H77 strain or genotype 1b Conl strain subgenomic luciferase replicon (H1a-luc or Zluc, respectively) were grown in DMEM containing glucose, L-glutamine and sodium pyruvate, 10% fetal bovine serum (FBS), 100 IU/mL penicillin, 100 μg/mL streptomycin, 2 mM GlutaMAX, non-essential amino acids and 0.25 (H1a-luc) or 0.5 (Zluc) mg/mL G418. GlutaMAX was obtained from Invitrogen, Corp.; all other media reagents were obtained from Mediatech, Inc. For dose-response testing, the cells were seeded in 96-well plates at 1×10^4 (H1a-luc) or 7.5×10^3 (Zluc) cells/well in a volume of 50 μL, and incubated at 37° C./5% CO2. Three hours after plating, 50 μL of ten 5-fold serial dilutions of compound were added, and cell cultures were incubated at 37° C./5% CO2 for 72 hours. In all cases, Huh-7 cells lacking the HCV replicon served as negative control. To assess luciferase expression, the media/compound was removed from the plates and ONE-glo Luciferase assay reagent (Promega) was added to each well. The assay plates were shaken for 3 minutes at room temperature and luciferase activity for each well was measured with a 1 sec read time on the Victor^3V multilabel counter using a 700 nm cut-off filter (Perkin Elmer). EC50 values were calculated from dose response curves from the resulting best-fit equations determined by Microsoft Excel and XLfit 4.1 software.

Data set [2] has as its system GS4.1 cells. In words: Cytotoxicity evaluation in GS4.1 cells (Cell Titer 96 AQueous One). In kind it is cell-based, human. Particulars: cellular viability. The method, then:
For cytotoxicity evaluation, GS4.1 cells were treated with compounds as described above and cellular viability was monitored using the Cell Titer 96 AQueous One Solution Cell Proliferation Assay (Promega). CC50 values were determined from the % cytotoxicity versus concentration data with Tecan Magellan software as described above.

For data set [3], the system named is HCV genotype 4a-specific NS5A gene within the 1b-replicon. In words: Luciferase replicon assay, NS5A-intergenotypic stable cell line genotype 4a. In kind it is cell-based. Particulars: Hepatitis C virus, read-out: EC50 4a.
Description: as §1, §2, §3, §4

Data set [4] concerns HCV genotype 3a-specific NS5A gene within the 1b-replicon. In words: Luciferase replicon assay, NS5A-intergenotypic stable cell line genotype 3a. In kind it is cell-based. Particulars: Hepatitis C virus, read-out: EC50 3a.
Description: as §1, §2, §3, §4

The nature of data set [5]: Cytotoxicity evaluation in luciferase replicon cells (Cell Titer 96 AQueous One). In kind it is cell-based, human. Particulars: human; Table 1B, cellular viability. The method, then: For cytotoxicity evaluation, H1a-luc or Zluc cells were treated with compounds as described above and cellular viability was monitored using the Cell Titer 96 AQueous One Solution Cell Proliferation Assay (Promega). Plates were then read at 490 nm in a Victor^3V 1420 multilabel counter (Perkin Elmer) and CC50 concentrations were determined using Microsoft Excel and XLfit 4.1 software.

The subject of data set [6] is Huh-7 cells containing HCV Con1 subgenomic replicon (GS4.1 cells). In words: HCV replicon assay (NS5A ELISA). In kind it is cell-based. To be noted: Hepatitis C virus, Huh-7; GS4.1 cells, 72 hrs, NS5A ELISA; read-out: EC50. The method, then: General Procedure: Huh-7 cells containing HCV Con1 subgenomic replicon (GS4.1 cells) were grown in Dulbecco's Modified Eagle Medium (DMEM) supplemented with 10% fetal bovine serum (FBS), 2 mM L-glutamine, 110 mg/L sodium pyruvate, 1× non-essential amino acids, 100 U/mL penicillin-streptomycin, and 0.5 mg/mL G418 (Invitrogen). For dose-response testing, the cells were seeded in 96-well plates at 7.5×10^3 cells/well in a volume of 50 μL, and incubated at 37° C./5% CO2. Three hours after plating, 50 μL of ten 2-fold serial dilutions of compounds (highest concentration, 75 μM) were added, and cell cultures were incubated at 37° C./5% CO2 in the presence of 0.5% DMSO. Alternatively, compounds were tested at a single concentration of 15 μM. In all cases, Huh-7 cells lacking the HCV replicon served as negative control. The cells were incubated in the presence of compounds for 72 hrs after which they were monitored for expression of the NS5A protein by enzyme-linked immunosorbent assay (ELISA). For this, the plates were then fixed for 1 min with acetone/methanol (1:1, v/v), washed twice with phosphate-buffered saline (PBS), 0.1% Tween 20, blocked for 1 hr at room temperature with TNE buffer containing 10% FBS and then incubated for 2 hr at 37° C. with the anti-NS5A mouse monoclonal antibody A-236 (ViroGen) diluted in the same buffer. After washing three times with PBS, 0.1% Tween 20, the cells were incubated 1 hr at 37° C. with anti-mouse immunoglobulin G-peroxidase conjugate in TNE, 10% FBS. After washing as described above, the reaction was developed with O-phenylenediamine (Zymed). The reaction was stopped after 30 min with 2 N H2SO4, and absorbance was read at 492 nm using Sunrise Tecan spectrophotometer. EC50 values were determined from the % inhibition versus concentration data using a sigmoidal non-linear regression analysis based on four parameters with Tecan Magellan software.

The subject of data set [7] is HCV genotype 1b Conl strain subgenomic luciferase replicon (Zluc). The data set is described as follows: Luciferase replicon assay, genotype 1b. Particulars: Hepatitis C virus, 72 h, read-out: EC50 1b. In kind it is cell-based. The method, then: as §4

Some results are limits rather than exact numbers.

Take `COC(=O)N[C@H](C(=O)N1CCC[C@H]1c1ncc(-c2ccc(-c3csc4c(-c5cnc([C@@H]6CCCN6C(=O)[C@H](NC(=O)OC(C)(C)C)c6ccccc6)[nH]5)csc34)cc2)[nH]1)C(C)C` [Compound A111, [(S)-1-((S)-2-{4-[4-(6-{(S)-2-[1-((R)-2-tert-butoxycarbonylamino-2-phenyl-acetyl)-pyrrolidin-2-yl]-3H-imidazol-4-yl}-thieno[3,2-b]thiophen-3-yl)-phenyl]-1H-imidazol-2-yl}-pyrrolidine-1-carbonyl)-2-methyl-propyl]-carbamic acid methyl ester]: the EC50 in data set [1] is below 0.1 nM; in data set [3], below 0.1 nM; in data set [4], below 0.1 nM; in data set [6], below 1 nM; in data set [7] it was below 0.1 nM. For the same compound, in data set [2], the CC50 was above 75000 nM. The compound also registered a CC50 at 72 h in data set [5] above 75000 nM.
Consider `COC(=O)N[C@H](C(=O)N1CCC[C@H]1c1ncc(-c2ccc(-c3csc4c(-c5ccc6[nH]c([C@@H]7CCCN7C(=O)[C@@H](NC(=O)OC)C(C)C)nc6c5)csc34)cc2)[nH]1)C(C)C` [Compound A171, [(S)-1-((S)-2-{4-[4-(6-{2-[(S)-1-((S)-2-methoxycarbonylamino-3-methyl-butyryl)-pyrrolidin-2-yl]-3H-benzoimidazol-5-yl}-thieno[3,2-b]thiophen-3-yl)-phenyl]-1H-imidazol-2-yl}-pyrrolidine-1-carbonyl)-2-methyl-propyl]-carbamic acid methyl ester], for which the EC50 was 0.1 to 1 nM in data set [1], below 0.1 nM in data set [3], 1 to 10 nM in data set [4] and below 0.1 nM in data set [7]. For the same compound, the half-maximal cytotoxic concentration (CC50) at 72 h in data set [5] was above 75000 nM.
Take `COC(=O)N[C@H](C(=O)N1CCC[C@H]1c1ncc(-c2ccc(-c3csc4c(-c5ccc6[nH]c([C@@H]7CCCN7C(=O)[C@H](NC(=O)OC)c7ccccc7)nc6c5)csc34)cc2)[nH]1)C(C)C` [Compound A172, [(S)-1-((S)-2-{5-[4-(6-{(S)-2-[1-((R)-2-methoxycarbonylamino-2-phenyl-acetyl)-pyrrolidin-2-yl]-3H-benzoimidazol-5-yl}-thieno[3,2-b]thiophen-3-yl)-phenyl]-1H-imidazol-2-yl}-pyrrolidine-1-carbonyl)-2-methyl-propyl]-carbamic acid methyl ester]: the EC50 in data set [1], in data set [3], in data set [4] and in data set [7] was below 0.1 nM in each case. This compound yielded a half-maximal cytotoxic concentration (CC50) at 72 h in data set [5] above 75000 nM.
Consider `COC(=O)N[C@H](C(=O)N1CCC[C@H]1c1ncc(-c2csc3c(-c4ccc5[nH]c([C@@H]6CCCN6C(=O)[C@@H](NC(=O)OC)C(C)C)nc5c4)csc23)[nH]1)C(C)C` [Compound A173, ((S)-1-{(S)-2-[6-(6-{(S)-2-[1-((S)-2-methoxycarbonylamino-3-methyl-butyryl)-pyrrolidin-2-yl]-1H-imidazol-4-yl}-thieno[3,2-b]thiophen-3-yl)-1H-benzoimidazol-2-yl]-pyrrolidine-1-carbonyl}-2-methyl-propyl)-carbamic acid methyl ester], for which the EC50 in data set [1] is 1 to 10 nM; in data set [3], 1 to 10 nM; in data set [4], 1 to 10 nM; in data set [7], below 0.1 nM. The compound further came in with a CC50 at 72 h in data set [5] of 10000 to 75000 nM.
As for `COC(=O)N[C@H](C(=O)N1CCC[C@H]1c1ncc(-c2ccc(-c3csc4c(-c5cnc([C@@H]6CCCN6C(=O)[C@H](NC(=O)OC)c6ccccc6)[nH]5)csc34)cc2)[nH]1)C(C)C` [Compound A200, [(S)-1-((S)-2-{4-[4-(6-{2-[(S)-1-((R)-2-methoxycarbonylamino-2-phenyl-acetyl)-pyrrolidin-2-yl]-3H-imidazol-4-yl}-thieno[3,2-b]thiophen-3-yl)-phenyl]-1H-imidazol-2-yl}-pyrrolidine-1-carbonyl)-2-methyl-propyl]-carbamic acid methyl ester], the EC50 in data set [1], in data set [3], in data set [4] and in data set [7] was below 0.1 nM throughout. Besides, the CC50 at 72 h in data set [5] was above 75000 nM.
For `COC(=O)N[C@H](C(=O)N1CCCC1c1nc(-c2cc3sc(-c4ccc(-c5cnc([C@@H]6CCCN6C(=O)[C@@H](c6ccccc6)N6CCCCC6)[nH]5)cc4)cc3o2)c[nH]1)C(C)C` (stereo partly drawn) [Compound A212], the 50% effective concentration (EC50) in data set [1], in data set [3], in data set [4] and in data set [7] was below 0.1 nM each time. The compound also showed a CC50 at 72 h in data set [5] of 10000 to 75000 nM.
Regarding `COC(=O)N[C@H](C(=O)N1CCC[C@H]1c1nc2ccc(-c3cc4sc(-c5ccc(-c6c[nH]c([C@@H]7CCCN7C(=O)[C@H](NC(=O)OC)c7ccccc7)n6)cc5)cc4s3)cc2[nH]1)C(C)C` [Compound A215, [(S)-1-((S)-2-{6-[5-(4-{(S)-2-[1-((R)-2-methoxycarbonylamino-2-phenyl-acetyl)-pyrrolidin-2-yl]-1H-imidazol-4-yl}-phenyl)-thieno[3,2-b]thiophen-2-yl)-1H-benzoimidazol-2-yl}-pyrrolidine-1-carbonyl)-2-methyl-propyl]-carbamic acid methyl ester], the concentration for a half-maximal effect (EC50) in data set [1], in data set [3], in data set [4] and in data set [7] was below 0.1 nM throughout. The cytotoxic concentration (CC50) at 72 h in data set [5] is above 75000 nM.
Regarding `COC(=O)N[C@H](C(=O)N1CCCC1c1ncc(-c2cc3sc(-c4ccc(-c5cnc([C@@H]6CCCN6C(=O)[C@H](NC(=O)OC)c6ccccc6)[nH]5)cc4)cc3s2)[nH]1)C(C)C` (stereo partly drawn) [Compound A217], the 50% effective concentration (EC50) in data set [1], in data set [3], in data set [4] and in data set [7] was below 0.1 nM in each case. The compound also yielded a CC50 at 72 h in data set [5] above 75000 nM.
